Our source for the TGI and GI50 values is PubChem BioAssay (NCI).

Test systems include 786-0 renal; LXFL 529 NSCLC; XF 498 CNS; MCF7 breast; P388 leukemia; P388/ADR leukemia; SN12K1 renal; BT-549 breast; DU-145 prostate; HS 578T breast; MDA-MB-231 breast; MDA-MB-435; PC-3 prostate.
What all share (assay): NCI tumour cell line growth inhibition, 48 h

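Exposure lasted 48 hours, with cells grown in 96-well plates and compounds tested at five concentrations. The concentration for 50% growth inhibition is given as GI50. TGI: concentration producing complete growth inhibition.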 Where only a bound is given, the exact number is not on record here.

Regarding `c1coc(CNc2ncnc3[nH]ncc23)c1`, the TGI with 786-0 renal, with LXFL 529 NSCLC and with XF 498 CNS was greater than 100 µM throughout.
`Cc1cc(C)n(-c2nsc3ccccc23)n1` displayed a TGI in the assay on LXFL 529 NSCLC greater than 100 µM.
Consider `Cc1ccc2c(c1)C(=O)N(N(C)C)CC(=O)N2`, for which the TGI in the assay with LXFL 529 NSCLC and in the assay with XF 498 CNS was greater than 100 µM each time.
As for `CC(=O)c1ccc2c(c1)c1c(C)c3c[n+](C)ccc3c(C)c1n2C`, the TGI in the assay on MCF7 breast is greater than 29 µM; in the assay with P388 leukemia, 4.68 µM; in the assay with P388/ADR leukemia it was 21.6 µM; in the assay on SN12K1 renal, 13.7 µM; with XF 498 CNS it was 17.1 µM.
Regarding `CSc1nc(NC2OCC(O)C(O)C2O)c(N)c(=O)[nH]1` (centres undefined), the TGI in the assay on MCF7 breast, with P388 leukemia, in the assay on P388/ADR leukemia and in the assay on SN12K1 renal was greater than 100 µM each time.
`Fc1ccc(C2CC(c3cccc(Nc4ccncc4)c3)=NN2c2ccc(Cl)cc2)cc1` (centres undefined): the GI50 in the assay with BT-549 breast is 2.04 µM; with DU-145 prostate, 1.78 µM; in the assay on HS 578T breast, 1.74 µM; in the assay on MCF7 breast, 1.75 µM; in the assay with MDA-MB-231 breast, 1.51 µM; in the assay with MDA-MB-435, 1.58 µM. Also, the GI50 with PC-3 prostate is 1.63 µM. Besides, the TGI turned out to be 4.26 µM in the assay with BT-549 breast; 3.21 µM with DU-145 prostate; 3.63 µM in the assay on HS 578T breast; 3.5 µM in the assay on MCF7 breast; 2.86 µM in the assay on MDA-MB-231 breast; 2.95 µM in the assay on MDA-MB-435. The molecule further came in with a TGI in the assay with PC-3 prostate of 3.19 µM.
With `N#CN=[N+]([O-])c1ccc(C(=O)O)cc1`, the TGI came out at 31.4 µM in the assay on BT-549 breast; 61.3 µM in the assay with HS 578T breast; 38.8 µM with MCF7 breast; 31.8 µM with MDA-MB-435; 31.2 µM with PC-3 prostate.
Turning to `Brc1ccc(C2CC(c3cccc4ccccc34)=Nc3ccccc3S2)cc1` (centres undefined), the TGI in the assay on LXFL 529 NSCLC and in the assay on XF 498 CNS was greater than 100 µM throughout.
Turning to `Cc1cc2c(cc1C)OC(=O)CC2`, the TGI in the assay on 786-0 renal, with BT-549 breast, in the assay on DU-145 prostate, with HS 578T breast, with MCF7 breast and in the assay with MDA-MB-231 breast was greater than 100 µM each time. Besides, the TGI with MDA-MB-435 and in the assay with PC-3 prostate was greater than 100 µM in each case.
